Measurements taken from EP3227262B1, “SULFIDE ALKYL AND PYRIDYL REVERSE SULFONAMIDE COMPOUNDS FOR HBV TREATMENT” (Novira Therapeutics Inc., priority 2014, dated 2016).

System: HBV
Test: Inhibition of HBV replication dot-blot assay in HBV-producing hepatoma cell line
Format: cell-based
Details: Hepatitis B virus, 144 h; activity in Dot-Blot assay; HepG2-2.2.15 cells; reduction in HBV DNA levels, six days
Protocol: Compounds active in the HBV assembly assay are tested for their activity and toxicity in cellular assay. In the first anti-viral assay, the ability of compounds to inhibit HBV replication in an HBV-producing hepatoma cell line using the dot-blot method is evaluated.
(§1) Briefly, confluent monolayers of HepG2-2.2.15 cells are incubated with complete medium containing various concentrations of a test compound. Three days later, the culture medium is replaced with fresh medium containing the appropriately diluted test compound. Six days following the initial administration of the test compound, the cell culture supernatant is collected, and cell lysis is performed. The samples are applied onto Nylos membranes and DNA is immobilized to the membrane by UV cross-linking. After pre-hybridization, the HBV probe is added and the hybridization is performed overnight. The membranes are exposed to the KODAK films; antiviral activity is calculated from the reduction in HBV DNA levels (EC50). The EC50 for antiviral activity is calculated from the dose response curves of active compounds. Assay performance over time is monitored by the use of the standard positive control compounds ETV, BAY 41-4109, and HAP-1.
Selected compounds are tested for their activity and toxicity in cellular assay. In the first anti-viral assay, the ability of compounds to inhibit HBV replication in an HBV-producing hepatoma cell line using the dot-blot method is evaluated.
as §1, with “Confluent monolayers” for “Briefly, confluent monolayers”, “lysis was” for “lysis is”

Compound: O=C(Nc1ccc(F)c(Cl)c1)c1ccc(F)c(SC2CCCCC2F)c1 (racemic) [Compound 72, (±)-N-(3-Chloro-4-fluorophenyl)-4-fluoro-3-((2-fluorocyclohexyl)thio)benzamide]
- EC50: < 10 µM

Compound: O=C(O)CC1CCC(Sc2cc(C(=O)Nc3cc(F)c(F)c(F)c3)ccc2F)C1 (racemic) [Compound 101, (±)-2-(3-((2-Fluoro-5-((3,4,5-trifluorophenyl)carbamoyl)phenyl)thio)cyclopentyl)acetic acid]
- EC50: < 10 µM

Compound: O=C(O)CC1CCC(Sc2cc(C(=O)Nc3ccc(F)c(Cl)c3)ccc2F)C1 (racemic) [Compound 102, (±)-2-(3-((5-((3-Chloro-4-fluorophenyl)carbamoyl)-2-fluorophenyl)thio)cyclopentyl)acetic acid]
- EC50: < 10 µM

Compound: O=C(O)CC1CCC(Sc2cc(C(=O)Nc3ccc(F)c(F)c3)ccc2F)C1 (racemic) [Compound 105, (±)-2-(3-((5-((3,4-Difluorophenyl)carbamoyl)-2-fluorophenyl)thio)cyclopentyl)acetic acid]
- EC50: < 10 µM

Compound: O=C(Nc1ccc(F)c(Cl)c1)c1ccnc(NS(=O)(=O)C2CCOC2)c1 (racemic) [Compound 161, (±)-N-(3-Chloro-4-fluorophenyl)-2-(tetrahydrofuran-3-sulfonamido)isonicotinamide]
- EC50: < 10 µM

Compound: O=C(Nc1ccc(F)c(Cl)c1)c1ccnc(NS(=O)(=O)C2CCCOC2)c1 (racemic) [Compound 179, (±)-N-(3-Chloro-4-fluorophenyl)-2-(tetrahydro-2H-pyran-3-sulfonamido)isonicotinamide]
- EC50: < 10 µM

Compound: O=C(Nc1ccc(F)c(Cl)c1)c1cccc(NS(=O)(=O)C2CCOC2)c1 (racemic) [Compound 202, (±)-N-(3-chloro-4-fluorophenyl)-3-(tetrahydrofuran-3-sulfonamido)benzamide]
- EC50: < 10 µM

Compound: O=C(Nc1ccc(F)c(Cl)c1)c1cccc(NS(=O)(=O)CC2CCCO2)c1 (racemic) [Compound 203, (±)-N-(3-chloro-4-fluorophenyl)-3-((tetrahydrofuran-2-yl)methylsulfonamido)benzamide]
- EC50: < 10 µM

Compound: COCC(C)S(=O)(=O)Nc1cccc(C(=O)Nc2ccc(F)c(Cl)c2)c1 (racemic) [Compound 204, (±)-N-(3-chloro-4-fluorophenyl)-3-(2-methoxy-1-methylethylsulfonamido)benzamide]
- EC50: < 10 µM

Compound: CC1OCCC1S(=O)(=O)Nc1cccc(C(=O)Nc2ccc(F)c(Cl)c2)c1 (racemic) [Compound 205, (±)-N-(3-chloro-4-fluorophenyl)-3-(2-methyltetrahydrofuran-3-sulfonamido)benzamide]
- EC50: < 10 µM

Compound: O=C(Nc1ccc(F)c(Cl)c1)c1cccc(NS(=O)(=O)C2CS(=O)(=O)CC2O)c1 (racemic) [Compound 206, (±)-N-(3-chloro-4-fluorophenyl)-3-(4-hydroxy-1,1-dioxidotetrahydrothiophene-3-sulfonamido)benzamide]
- EC50: < 10 µM

Compound: O=C(Nc1cc(F)c(F)c(F)c1)c1ccc(F)c(SC2CCCC2)c1 [Compound 3, 3-(Cyclopentylthio)-4-fluoro-N-(3,4,5-trifluorophenyl)benzamide]
- EC50: < 10 µM

Compound: CC(C)(C)Sc1cc(C(=O)Nc2cc(F)c(F)c(F)c2)ccc1F [Compound 5, 3-(tert-Butylthio)-4-fluoro-N-(3,4,5-trifluorophenyl)benzamide]
- EC50: < 10 µM

Compound: O=C(Nc1cc(F)c(F)c(F)c1)c1ccc(F)c(SCCO)c1 [Compound 7, 4-Fluoro-3-((2-hydroxyethyl)thio)-N-(3,4,5-trifluorophenyl)benzamide]
- EC50: < 10 µM

Compound: Cc1cc(NC(=O)c2ccc(F)c(SC3CCCCC3)c2)ccc1F [Compound 8, 3-(Cyclohexylthio)-4-fluoro-N-(4-fluoro-3-methylphenyl)benzamide]
- EC50: < 10 µM

Compound: Cc1cc(NC(=O)c2ccc(F)c(SC3CCCC3)c2)ccc1F [Compound 9, 3-(Cyclopentylthio)-4-fluoro-N-(4-fluoro-3-methylphenyl)benzamide]
- EC50: < 10 µM

Compound: O=C(Nc1cc(F)c(F)c(F)c1)c1ccc(F)c(SCCCO)c1 [Compound 17, 4-Fluoro-3-((3-hydroxypropyl)thio)-N-(3,4,5-trifluorophenyl)benzamide]
- EC50: < 10 µM

Compound: CC(C)(O)CCSc1cc(C(=O)Nc2cc(F)c(F)c(F)c2)ccc1F [Compound 19, 4-Fluoro-3-((3-hydroxy-3-methylbutyl)thio)-N-(3,4,5-trifluorophenyl)benzamide]
- EC50: < 10 µM

Compound: O=C(Nc1cc(F)c(F)c(F)c1)c1ccc(F)c(SCCCCO)c1 [Compound 23, 4-Fluoro-3-((4-hydroxybutyl)thio)-N-(3,4,5-trifluorophenyl)benzamide]
- EC50: < 10 µM

Compound: O=C(Nc1ccc(F)c(Cl)c1)c1ccc(F)c(SCCO)c1 [Compound 26, N-(3-Chloro-4-fluorophenyl)-4-fluoro-3-((2-hydroxyethyl)thio)benzamide]
- EC50: < 10 µM

Compound: O=C(Nc1ccc(F)c(Cl)c1)c1ccc(F)c(SCCCO)c1 [Compound 27, N-(3-Chloro-4-fluorophenyl)-4-fluoro-3-((3-hydroxypropyl)thio)benzamide]
- EC50: < 10 µM

Compound: O=C(Nc1ccc(F)c(Cl)c1)c1ccc(F)c(SCC2CCOCC2)c1 [Compound 47, N-(3-Chloro-4-fluorophenyl)-4-fluoro-3-(((tetrahydro-2H-pyran-4-yl)methyl)thio)benzamide]
- EC50: < 10 µM

Compound: O=C(Nc1cc(F)c(F)c(F)c1)c1c[nH]c(=O)c(SC2CCCC2)c1 [Compound 48, 5-(Cyclopentylthio)-6-oxo-N-(3,4,5-trifluorophenyl)-1,6-dihydropyridine-3-carboxamide]
- EC50: < 10 µM

Compound: CC(C)(Sc1cc(C(=O)Nc2ccc(F)c(Cl)c2)ccc1F)C(=O)O [Compound 51, 2-((5-((3-Chloro-4-fluorophenyl)carbamoyl)-2-fluorophenyl)thio)-2-methylpropanoic acid]
- EC50: < 10 µM

Compound: O=C(Nc1ccc(F)c(Cl)c1)c1ccc(F)c(SC2CCCCCC2)c1 [Compound 52, N-(3-Chloro-4-fluorophenyl)-3-(cycloheptylthio)-4-fluorobenzamide]
- EC50: < 10 µM

Compound: O=C(Nc1ccc(F)c(Cl)c1)c1ccc(F)c(SCC2COC2)c1 [Compound 60, N-(3-Chloro-4-fluorophenyl)-4-fluoro-3-((oxetan-3-ylmethyl)thio)benzamide]
- EC50: < 10 µM

Compound: O=C(Nc1ccc(F)c(Cl)c1)c1ccc(F)c(SC2COC2)c1 [Compound 65, N-(3-Chloro-4-fluorophenyl)-4-fluoro-3-(oxetan-3-ylthio)benzamide]
- EC50: < 10 µM

Compound: COc1ccc(C(=O)Nc2ccc(F)c(Cl)c2)cc1SC1CCCCC1 [Compound 69, N-(3-Chloro-4-fluorophenyl)-3-(cyclohexylthio)-4-methoxybenzamide]
- EC50: < 10 µM

Compound: COc1ccc(C(=O)Nc2ccc(F)c(F)c2)cc1SC1CCCCC1 [Compound 80, 3-(Cyclohexylthio)-N-(3,4-difluorophenyl)-4-methoxybenzamide]
- EC50: < 10 µM

Compound: O=C(Nc1cc(F)c(F)c(F)c1)c1ccnc(NS(=O)(=O)C2CC2)c1 [Compound 127, 2-(Cyclopropanesulfonamido)-N-(3,4,5-trifluorophenyl)isonicotinamide]
- EC50: < 10 µM

Compound: O=C(Nc1ccc(F)c(F)c1)c1ccnc(NS(=O)(=O)C2CC2)c1 [Compound 128, 2-(Cyclopropanesulfonamido)-N-(3,4-difluorophenyl)isonicotinamide]
- EC50: < 10 µM

Compound: CC1(S(=O)(=O)Nc2cc(C(=O)Nc3ccc(F)c(Cl)c3)ccn2)CC1 [Compound 130, N-(3-Chloro-4-fluorophenyl)-2-(1-methylcyclopropanesulfonamido)isonicotinamide]
- EC50: < 10 µM

Compound: CCS(=O)(=O)Nc1cc(C(=O)Nc2ccc(F)c(Cl)c2)ccn1 [Compound 131]
- EC50: < 10 µM

Compound: CCCS(=O)(=O)Nc1cc(C(=O)Nc2ccc(F)c(Cl)c2)ccn1 [Compound 133, N-(3-Chloro-4-fluorophenyl)-2-(propylsulfonamido)isonicotinamide]
- EC50: < 10 µM

Compound: O=C(Nc1ccc(F)c(Cl)c1)c1ccnc(NS(=O)(=O)C2CCCCC2)c1 [Compound 134, N-(3-Chloro-4-fluorophenyl)-2-(cyclohexanesulfonamido)isonicotinamide]
- EC50: < 10 µM

Compound: O=C(Nc1ccc(F)c(Cl)c1)c1cc(F)nc(NS(=O)(=O)C2CC2)c1 [Compound 137, N-(3-Chloro-4-fluorophenyl)-2-(cyclopropanesulfonamido)-6-fluoroisonicotinamide]
- EC50: < 10 µM

Compound: O=C(Nc1ccc(F)c(Cl)c1)c1cc(F)nc(NS(=O)(=O)c2ccccc2)c1 [Compound 138, N-(3-Chloro-4-fluorophenyl)-2-fluoro-6-(phenylsulfonamido)isonicotinamide]
- EC50: < 10 µM

Compound: O=C(Nc1ccc(F)c(Cl)c1)c1ccnc(NS(=O)(=O)Cc2ccccc2)c1 [Compound 139, N-(3-Chloro-4-fluorophenyl)-2-(phenylmethylsulfonamido)isonicotinamide]
- EC50: < 10 µM
